In patent US20120230918A1, “NON-INVASIVE IN VIVO OPTICAL IMAGING METHOD” (Hoffmann-La-Roche Inc., priority 2009, published 2012):
Each block holds one molecule with its values, some of them ahead of it.

Assays:
[1] = after i.v. injection; cited from earlier work
[2] = injected i.v. into mice; cited from earlier work
in vivo [3] = conditions: female, BALB/c nude, mouse, eye region (fluorescence signal), iv, 20 μg/200 μl
Protocol: Female BALB/c nude mice received inhalation anaesthesia, were placed in the imaging chamber (FIG. 3) and injected i.v. with a dose of 20 μg/200 μl. The fluorescence signal intensity measurements in the eye was started 10 sec before i.v. injection of ICG and images were recorded every second with an acquisition time of 500 ms over a period of 8 minutes. ICG was excited with light at a wavelength range from 671 to 705 nm and the emission was detected at 820 nm.
Female BALB/c nude received inhalation anesthesia, were placed into the imaging chamber and injected i.v. with ICG (20 μg/200 μl). The fluorescence signal intensity was measured starting 10 sec before injection of ICG. Images in the region of interest were recorded every second with an acquisition time of 500 ms over a period of 8 min. ICG was excited with light at a wavelength range from 671 to 705 nm and the emission was detected at 820 nm. The fluorescence intensity from these regions were then calculated and plotted as a function of time.
Female BALB/c nude mice received inhalation anesthesia, were placed in the imaging chamber (FIG. 3) and injected i.v. with a dose of 20 μg/200 μl.

in vivo [4] = conditions: BALB/c nude, mouse, eye (fluorescence signal intensity in the eye region), iv, 20 μg/200 μl
Protocol: (§1) We first evaluated the technical feasibility of this new approach by using indocyanine green (ICG) a fluorescent dye. […] Female BALB/c nude mice received inhalation anaesthesia, were placed in the imaging chamber (FIG. 3) and injected i.v. with a dose of 20 μg/200 μl. The fluorescence signal intensity measurements in the eye was started 10 sec before i.v. injection of ICG and images were recorded every second with an acquisition time of 500 ms over a period of 8 minutes. ICG was excited with light at a wavelength range from 671 to 705 nm and the emission was detected at 820 nm. […] In a second experiment, a BALB/c nude mouse with a s.c. growing tumor (Calu3) was injected with ICG i.v. and signal intensity in eye, liver, kidney, brain and the tumor region was monitored.
(§2) The fluorescence signal intensity in Calu3 xenograft was measured as described before. ROI were identified for the eye, liver, kidney, brain and s.c. growing tumor using the anatomical pictures of the subjects. The fluorescence intensity from these regions were then calculated and plotted as a function of time.
(§3) In a second experiment, a BALB/c nude mouse with a s.c. growing tumor (Calu3) was injected with ICG i.v. and signal intensity in eye, liver, kidney, brain and the tumor region was monitored.

[5] = Fluorescence signal intensity of ICG in eye, liver, kidney, brain and tumor region of a mouse with s.c. Calu3 tumor; conditions: second experiment, ICG i.v., BALB/c nude mouse with s.c. Calu3 tumor
Protocol: as §1, §2, §3

[6] = system: BMP-2 induced upregulation of Hepcidin mRNA in HepG2 cells; experiment: Block of BMP-2 induced upregulation of Hepcidin mRNA in HepG2 cells; type: cell-based; conditions: in vitro

Molecule: NCCC(O)(P(=O)(O)O)P(=O)(O)O [Pamidronate]
serum half life [1]: 20 to 30 min

Tmax (in vivo [3]): 2 min | half-life (in vivo [3]): 6.6 min | Tmax (in vivo [4]): 1.2 min | half-life (in vivo [4]): 5.4 min | accumulation in the liver, time of reaching a plateau [5]: 3.8 min
Molecule: CC1(C)C(/C=C/C=C/C=C/C=C2\N(CCCCS(=O)(=O)O)c3ccc4ccccc4c3C2(C)C)=[N+](CCCCS(=O)(=O)[O-])c2ccc3ccccc3c21 [ICG, Indocyanine green]
organ of accumulation [2]: accumulates in the liver | time in which cleared from the circulation [2]: 2 to 4 min

B1: non-labeled Hemojuvelin: non-labeled Hemojuvelin (protein, UniProt Q6ZVN8 36-400, looked up)
Hemojuvelin: QCKILRCNAEYVSSTLSLRGGGSSGALRGGGGGGRGGGVGSGGLCRALRSYALCTRRTARTCRGDLAFHSAVHGIEDLMIQHNCSRQGPTAPPPPRGPALPGAGSGLPAPDPCDYEGRFSRLHGRPPGFLHCASFGDPHVRSFHHHFHTCRVQGAWPLLDNDFLFVQATSSPMALGANATATRKLTIIFKNMQECIDQKVYQAEVDNLPVAFEDGSINGGDRPGGSSLSIQTANPGNHVEIQAAYIGTTIIIRQTAGQLSFSIKVAEDVAMAFSAEQDLQLCVGGCPPSQRLSRSERNRRGAITIDTARRLCKEGLPVEDAYFHSCVFDVLISGDPNFTVAAQAALEDARAFLPDLEKLHLFPSD
ability to block BMP-2 induced upregulation of Hepcidin mRNA, non-labeled versus Cy5-labeled [6]: did not differ

B2: Cy5-labeled Hemojuvelin: Hemojuvelin labeled with Cy5 (conjugate, UniProt Q6ZVN8 36-400, looked up)
Hemojuvelin: B1 Hemojuvelin
modifications: Cy5 label
ability to block BMP-2 induced upregulation of Hepcidin mRNA, non-labeled versus Cy5-labeled [6]: did not differ
